Test results reported in US9546158B2, “2,5-substituted pyrimidines” (Grünenthal GmbH, priority 2014, dated 2017).

target: T1, human PDE4B1 (Homo sapiens, UniProt Q07343); assay: cAMP HTRF assay to determine the activity of hPDE4B1; assay type: biochemical; details: test substrate concentration of 1 μM, read-out: Inhibition of PDE4B, Inhibition in %
T1 construct: host or cells: Sf9 cells
Experimental: cAMP HTRF® Assay to Determine the Activity of hPDE4B1
The inhibiting effect of the compounds on the enzyme activity of human PDE4B1 was measured by the quantification of 5′-adenosine monophosphate (5′-AMP), which is formed from 3′,5′-cyclic adenosine monophosphate (cAMP). Human recombinant enzyme, expressed in Sf9 cells, and the HTRF (homogeneous time-resolved fluorescence) detection method were used in the assay.
The test compound or water (control) was mixed with the human recombinant PDE4B1 enzyme (4.8 U) in a buffer consisting of 44.4 mM tris-HCl, 5.28 mM MgCl2, 2.64 mM DTT and 0.044% Tween 20 (pH 7.8). After adding the cAMP enzyme substrate (final concentration 40 nM), the mixture was incubated for 30 minutes at room temperature. Then a fluorescence acceptor (Dye2 marked with cAMP), a fluorescence donor (anti-cAMP antibody marked with a europium cryptate) and the non-specific phosphodiesterase inhibitor IBMX (3-isobutyl-1-methylxanthine; final concentration 1 mM) were added. After 60 minutes the fluorescence transfer, which correlates with the amount of remaining cAMP, was measured with a microplate reader (Rubystar, BMG) at λex=337 nm, λem=620 nm and λem=665 nm. The enzyme activity was calculated from the quotient formed from the measured signal at 665 nm and that at 620 nm. The result was expressed as the percentage inhibition of enzyme activity of the control (without PDE4 inhibitor). The enzyme was omitted for measurement of the basal control. IC50 values (IC50=concentration causing a half-maximal inhibition of control specific activity) were derived from dose response measurements with eight different concentrations (n=2; N=1-3).
Literature: N. Saldou et al., Comparison of recombinant human PDE4 isoforms: interaction with substrate and inhibitors, Cell. Signal. Vol. 10, No. 6, 427-440, 1998

T1 sequence (Q07343 whole entry): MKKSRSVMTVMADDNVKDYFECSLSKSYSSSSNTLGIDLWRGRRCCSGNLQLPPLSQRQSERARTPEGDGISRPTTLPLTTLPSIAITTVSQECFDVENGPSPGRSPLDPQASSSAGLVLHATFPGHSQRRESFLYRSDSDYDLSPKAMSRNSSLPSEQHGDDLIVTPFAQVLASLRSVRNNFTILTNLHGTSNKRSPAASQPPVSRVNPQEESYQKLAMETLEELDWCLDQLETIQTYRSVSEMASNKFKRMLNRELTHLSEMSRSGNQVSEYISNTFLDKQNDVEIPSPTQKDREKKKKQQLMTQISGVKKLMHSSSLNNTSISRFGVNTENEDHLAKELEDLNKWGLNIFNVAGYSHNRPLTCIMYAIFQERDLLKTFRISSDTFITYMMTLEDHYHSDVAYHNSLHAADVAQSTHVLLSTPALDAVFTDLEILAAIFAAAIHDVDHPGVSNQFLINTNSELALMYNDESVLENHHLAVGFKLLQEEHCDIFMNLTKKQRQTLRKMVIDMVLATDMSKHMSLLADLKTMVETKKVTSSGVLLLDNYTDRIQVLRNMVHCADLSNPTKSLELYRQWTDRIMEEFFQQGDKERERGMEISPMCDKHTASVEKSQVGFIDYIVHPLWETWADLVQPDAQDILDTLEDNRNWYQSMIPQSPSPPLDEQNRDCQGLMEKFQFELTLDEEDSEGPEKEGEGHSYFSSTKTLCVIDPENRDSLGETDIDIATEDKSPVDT

SMILES	inhibition at 1 µM
O=C(c1ccc2c(C(F)(F)F)nn(-c3ncc(-c4ccccc4F)cn3)c2c1)N1CCOCC1 [Compound No. 2, (1-(5-(2-Fluorophenyl)pyrimidin-2-yl)-3-(trifluoromethyl)-1H-indazol-6-yl)(morpholino)methanone]	102%
Cc1nn(-c2ncc(-c3ccccc3F)cn2)c2cc(C(=O)N3CCOCC3)ccc12 [Compound No. 1, (1-(5-(2-Fluorophenyl)pyrimidin-2-yl)-3-methyl-1H-indazol-6-yl)(morpholino)methanone]	99%
C[S+]([O-])c1nn(-c2ncc(-c3ccccc3)cn2)c2cc(C(=O)N3CCOCC3)ccc12 (stereo not drawn) [Compound No. 11, (3-(Methylsulfinyl)-1-(5-phenylpyrimidin-2-yl)-1H-indazol-6-yl)(morpholino)methanone]	115%
CC(O)c1nn(-c2ncc(-c3ccccc3)cn2)c2cc(C(=O)N3CCOCC3)ccc12 (stereo not drawn) [Compound No. 19, (3-(1-Hydroxyethyl)-1-(5-phenylpyrimidin-2-yl)-1H-indazol-6-yl)(morpholino)methanone]	112%
CS(=O)(=O)c1nn(-c2ncc(-c3ccccc3)cn2)c2cc(C(=O)N3CCOCC3)ccc12 [Compound No. 12, (3-(Methylsulfonyl)-1-(5-phenylpyrimidin-2-yl)-1H-indazol-6-yl)(morpholino)methanone]	62%
C[S+]([O-])c1nn(-c2ncc(-c3ccccc3)cn2)c2cc(C(=O)N3CCNCC3)ccc12 (stereo not drawn) [Compound No. 9, (3-(Methylsulfinyl)-1-(5-phenylpyrimidin-2-yl)-1H-indazol-6-yl)(piperazin-1-yl)methanone]	46%
COc1ccc(F)c(-c2cnc(-n3nc(C(C)O)c4ccc(C(=O)N5CCOCC5)cc43)nc2)c1 (stereo not drawn) [Compound No. 21, (1-(5-(2-Fluoro-5-methoxyphenyl)pyrimidin-2-yl)-3-(1-hydroxyethyl)-1H-indazol-6-yl)(morpholino)methanone]	112%
C[S+]([O-])c1nn(-c2ncc(-c3ccccc3F)cn2)c2cc(C(=O)N3CCOCC3)ccc12 (stereo not drawn) [Compound No. 6, (1-(5-(2-Fluorophenyl)pyrimidin-2-yl)-3-(methylsulfinyl)-1H-indazol-6-yl)(morpholino)methanone]	97%
CS(=O)(=O)c1nn(-c2ncc(-c3ccccc3F)cn2)c2cc(C(=O)N3CCOCC3)ccc12 [Compound No. 5, (1-(5-(2-Fluorophenyl)pyrimidin-2-yl)-3-(methylsulfonyl)-1H-indazol-6-yl)(morpholino)methanone]	96%
C[S+]([O-])c1nn(-c2ncc(-c3ccccc3F)cn2)c2cc(C(=O)N3CCNCC3)ccc12 (stereo not drawn) [Compound No. 8, (1-(5-(2-Fluorophenyl)pyrimidin-2-yl)-3-(methylsulfinyl)-1H-indazol-6-yl)(piperazin-1-yl)methanone]	64%
O=C(c1ccc2c(C3CC3)nn(-c3ncc(-c4ccccc4F)cn3)c2c1)N1CCOCC1 [Compound No. 4, (3-Cyclopropyl-1-(5-(2-fluorophenyl)pyrimidin-2-yl)-1H-indazol-6-yl)(morpholino)methanone]	106%
C[S+]([O-])c1nn(-c2ncc(-c3ccccc3F)cn2)c2cc(C(=O)N3CC[C@@H](N)C3)ccc12 (stereo partly drawn) [Compound No. 13, ((R)-3-Aminopyrrolidin-1-yl)(1-(5-(2-fluorophenyl)pyrimidin-2-yl)-3-(methylsulfinyl)-1H-indazol-6-yl)methanone]	108%

Second part, the compound after the results:

inhibition at 1 µM	SMILES
43%	COC[C@@H]1CCCN1C(=O)c1cc2c(cn1)c(C1CC1)nn2-c1ncc(-c2ccccc2F)cn1 [compound 48, (S)-(3-Cyclopropyl-1-(5-(2-fluorophenyl)pyrimidin-2-yl)-1H-pyrazolo[4,3-c]pyridin-6-yl)(2-(methoxymethyl)pyrrolidin-1-yl)methanone]
112%	CC(O)c1nn(-c2ncc(-c3cc(C#N)ccc3F)cn2)c2cc(C(=O)N3CCOCC3)ccc12 (stereo not drawn) [Compound No. 22, 4-Fluoro-3-(2-(3-(1-hydroxyethyl)-6-(morpholine-4-carbonyl)-1H-indazol-1-yl)pyrimidin-5-yl)benzonitrile]
69%	COCCNC(=O)c1cc2c(cn1)c(C1CC1)nn2-c1ncc(-c2ccccc2F)cn1 [compound 41, 3-Cyclopropyl-1-(5-(2-fluorophenyl)pyrimidin-2-yl)-N-(2-methoxyethyl)-1H-pyrazolo[4,3-c]pyridine-6-carboxamide]
54%	CC1COCC(C)N1C(=O)c1cc2c(cn1)c(C1CC1)nn2-c1ncc(-c2ccccc2F)cn1 (stereo not drawn) [compound 49, (3-Cyclopropyl-1-(5-(2-fluorophenyl)pyrimidin-2-yl)-1H-pyrazolo[4,3-c]pyridin-6-yl)(3,5-dimethylmorpholino)methanone]
85%	COc1ccc(F)c(-c2cnc(-n3nc(S(C)(=O)=O)c4ccc(C(=O)N5CCOCC5)cc43)nc2)c1 [Compound No. 27, (1-(5-(2-Fluoro-5-methoxyphenyl)pyrimidin-2-yl)-3-(methylsulfonyl)-1H-indazol-6-yl)(morpholino)methanone]
85%	O=C(c1cc2c(cn1)c(C1CC1)nn2-c1ncc(-c2ccccc2F)cn1)N1CCCC1 [compound 38, (3-Cyclopropyl-1-(5-(2-fluorophenyl)pyrimidin-2-yl)-1H-pyrazolo[4,3-c]pyridin-6-yl)(pyrrolidin-1-yl)methanone]
85%	C[S+]([O-])c1nn(-c2ncc(-c3cc(C#N)ccc3F)cn2)c2cc(C(=O)N3CCOCC3)ccc12 (stereo not drawn) [Compound No. 25, 4-Fluoro-3-(2-(3-(methylsulfinyl)-6-(morpholine-4-carbonyl)-1H-indazol-1-yl)pyrimidin-5-yl)benzonitrile]
81%	O=C(NC1CC1)c1cc2c(cn1)c(C1CC1)nn2-c1ncc(-c2ccccc2F)cn1 [compound 36, N,3-Dicyclopropyl-1-(5-(2-fluorophenyl)pyrimidin-2-yl)-1H-pyrazolo[4,3-c]pyridine-6-carboxamide]
101%	Cc1cccc(-c2cnc(-n3nc([S+](C)[O-])c4ccc(C(=O)N5CCOCC5)cc43)nc2)c1 (stereo not drawn) [Compound No. 23, (3-(Methylsulfinyl)-1-(5-(m-tolyl)pyrimidin-2-yl)-1H-indazol-6-yl)(morpholino)methanone]
27%	O=C(NC1CCOCC1)c1cc2c(cn1)c(C1CC1)nn2-c1ncc(-c2ccccc2F)cn1 [compound 45, 3-Cyclopropyl-1-(5-(2-fluorophenyl)pyrimidin-2-yl)-N-(tetrahydro-2H-pyran-4-yl)-1H-pyrazolo[4,3-c]pyridine-6-carboxamide]
73%	CCN(C)C(=O)c1cc2c(cn1)c(C1CC1)nn2-c1ncc(-c2ccccc2F)cn1 [compound 37, 3-Cyclopropyl-N-ethyl-1-(5-(2-fluorophenyl)pyrimidin-2-yl)-N-methyl-1H-pyrazolo[4,3-c]pyridine-6-carboxamide]
61%	CC1COCCN1C(=O)c1cc2c(cn1)c(C1CC1)nn2-c1ncc(-c2ccccc2F)cn1 (stereo not drawn) [compound 44, (3-Cyclopropyl-1-(5-(2-fluorophenyl)pyrimidin-2-yl)-1H-pyrazolo[4,3-c]pyridin-6-yl)(3-methylmorpholino)methanone]
91%	Cc1cccc(-c2cnc(-n3nc(S(C)(=O)=O)c4ccc(C(=O)N5CCOCC5)cc43)nc2)c1 [Compound No. 26, (3-(Methylsulfonyl)-1-(5-(m-tolyl)pyrimidin-2-yl)-1H-indazol-6-yl)(morpholino)methanone]
59%	O=C(c1cc2c(cn1)c(C1CC1)nn2-c1ncc(-c2ccccc2F)cn1)N1CCC1 [compound 35, Azetidin-1-yl(3-cyclopropyl-1-(5-(2-fluorophenyl)pyrimidin-2-yl)-1H-pyrazolo[4,3-c]pyridin-6-yl)methanone]
67%	O=C(NCCn1cncn1)c1cc2c(cn1)c(C1CC1)nn2-c1ncc(-c2ccccc2F)cn1 [compound 47, N-(2-(1H-1,2,4-Triazol-1-yl)ethyl)-3-cyclopropyl-1-(5-(2-fluorophenyl)pyrimidin-2-yl)-1H-pyrazolo[4,3-c]pyridine-6-carboxamide]
39%	O=C(c1cc2c(cn1)c(C1CC1)nn2-c1ncc(-c2ccccc2F)cn1)N1CCCCC1 [compound 42, (3-Cyclopropyl-1-(5-(2-fluorophenyl)pyrimidin-2-yl)-1H-pyrazolo[4,3-c]pyridin-6-yl)(piperidin-1-yl)methanone]
67%	CCN(CC)C(=O)c1cc2c(cn1)c(C1CC1)nn2-c1ncc(-c2ccccc2F)cn1 [compound 39, 3-Cyclopropyl-N,N-diethyl-1-(5-(2-fluorophenyl)pyrimidin-2-yl)-1H-pyrazolo[4,3-c]pyridine-6-carboxamide]
40%	CN(CCO)C(=O)c1cc2c(cn1)c(C1CC1)nn2-c1ncc(-c2ccccc2F)cn1 [compound 40, 3-Cyclopropyl-1-(5-(2-fluorophenyl)pyrimidin-2-yl)-N-(2-hydroxyethyl)-N-methyl-1H-pyrazolo[4,3-c]pyridine-6-carboxamide]
